pIC50: −log10 of the molar value. Where a name gives a salt, the structure may show the parent alone.
Legend:
[1] = target: Cbl-b (Homo sapiens (Human), UniProt Q13191); experiment: Cbl-b LCK Ub TR-FRET assay (Cbl-b Lck HTRF); type: biochemical
Summary of the method: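 Biotin-Cbl-b preincubated with compound (10-point 3-fold series) 60 min, then His-LCK with 1 mM ATP (2× mixture) added for 90 min at room temperature. Ubiquitination detected by TR-FRET using HA-ubiquitin/UBE2D2 adduct, anti-HA-D2 and streptavidin-Eu; IC50 normalised to no-LCK and DMSO controls.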

[2] = target: c-Cbl (Homo sapiens (Human), UniProt P22681); experiment: C-Cbl LCK Ub TR-FRET assay (c-cbl Lck HTRF); type: biochemical; conditions: for (fold-selectivity): C-cbl Lck HTRF IC50 relative to Cbl-b Lck HTRF IC50
Summary of the method: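 After the ubiquitination reaction, detection mixture was added and plates incubated 20 min at room temperature before reading. IC50 values were calculated with wells lacking LCK as the low control and DMSO as the high control.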

c-Cbl, sequence (P22681 47-435): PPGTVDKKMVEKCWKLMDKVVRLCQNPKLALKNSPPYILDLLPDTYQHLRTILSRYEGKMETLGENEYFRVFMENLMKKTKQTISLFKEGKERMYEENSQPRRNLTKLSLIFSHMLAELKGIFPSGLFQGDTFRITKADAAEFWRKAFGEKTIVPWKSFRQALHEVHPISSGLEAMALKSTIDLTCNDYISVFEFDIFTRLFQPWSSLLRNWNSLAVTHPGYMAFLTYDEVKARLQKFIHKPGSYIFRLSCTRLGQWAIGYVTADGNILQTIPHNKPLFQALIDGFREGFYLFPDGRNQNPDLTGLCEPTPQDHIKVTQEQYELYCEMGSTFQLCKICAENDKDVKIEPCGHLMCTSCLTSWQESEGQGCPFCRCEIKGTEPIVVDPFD
Cbl-b, sequence (Q13191 40-426): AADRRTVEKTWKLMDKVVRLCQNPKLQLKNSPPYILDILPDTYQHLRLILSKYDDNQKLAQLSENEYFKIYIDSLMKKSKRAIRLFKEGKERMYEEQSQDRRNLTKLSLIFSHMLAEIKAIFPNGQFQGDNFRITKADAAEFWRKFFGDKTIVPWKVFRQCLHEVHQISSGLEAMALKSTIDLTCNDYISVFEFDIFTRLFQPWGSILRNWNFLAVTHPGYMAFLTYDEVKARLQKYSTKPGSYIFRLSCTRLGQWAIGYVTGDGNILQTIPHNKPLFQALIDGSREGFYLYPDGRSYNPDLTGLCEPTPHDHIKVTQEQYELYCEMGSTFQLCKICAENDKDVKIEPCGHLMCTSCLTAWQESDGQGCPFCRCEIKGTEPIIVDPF

In the case of `CC(C)Cc1cc(C2(Cc3nncn3C)CCC2)cc(N2Cc3c(cc(CNC4(C)CCC4)cc3C(F)(F)F)C2=O)n1` [Compound 342, 2-(6-isobutyl-4-(1-((4-methyl-4H-1,2,4-triazol-3-yl)methyl)cyclobutyl)pyridin-2-yl)-6-(((1-methylcyclobutyl)amino)methyl)-4-(trifluoromethyl)isoindolin-1-one formate], the pIC50 [1] was 7.96 and the pIC50 [2] was 8.10.
With `C[C@@H](N)c1cc2c(c(C(F)(F)F)c1)CN(c1cccc(C3(Cc4nncn4C)CC(F)(F)C3)c1)C2=O` [Compound 385, (R)-6-(1-aminoethyl)-2-(3-(3,3-difluoro-1-((4-methyl-4H-1,2,4-triazol-3-yl)methyl)cyclobutyl)phenyl)-4-(trifluoromethyl)isoindolin-1-one] the pIC50 [1] was 7.62, the pIC50 [2] was 7.66 and the “(fold-selectivity)” value [2] was “(0.93x)”.
With `CC(C)Nc1cc([C@H](C)Cc2nncn2C)cc(N2Cc3c(cc(CN4CCC5(CC5)C4)cc3C(F)(F)F)C2=O)n1.O=CO` [Compound 55, (R)-6-((5-azaspiro[2.4]heptan-5-yl)methyl)-2-(6-(isopropylamino)-4-(1-(4-methyl-4H-1,2,4-triazol-3-yl)propan-2-yl)pyridin-2-yl)-4-(trifluoromethyl)isoindolin-1-one formate] the pIC50 [1] was 7.80, the pIC50 [2] was 7.59 and the “(fold-selectivity)” value [2] was 1.6x.
Compound `Cn1cnnc1[C@H](F)C1(c2cccc(N3Cc4c(cc(CNC5(C)CCC5)cc4C(F)F)C3=O)c2)COC1` [Compound 249, (R)-4-(difluoromethyl)-2-(3-(3-(fluoro(4-methyl-4H-1,2,4-triazol-3-yl)methyl)oxetan-3-yl)phenyl)-6-(((1-methylcyclobutyl)amino)methyl)isoindolin-1-one formate] has a pIC50 [1] of 7.92 and a pIC50 [2] of 7.70.
`CCC1(O)CN(Cc2cc3c(c(C(F)(F)F)c2)CN(c2cccc(C4([C@H](F)c5nncn5C)COC4)c2)C3=O)C1` [Compound 168, (S)-6-((3-ethyl-3-hydroxyazetidin-1-yl)methyl)-2-(3-(3-(fluoro(4-methyl-4H-1,2,4-triazol-3-yl)methyl)oxetan-3-yl)phenyl)-4-(trifluoromethyl)isoindolin-1-one] was tested, and the pIC50 [1] was 6.74, the pIC50 [2] was 6.42 and the “(fold-selectivity)” value [2] was 2.1x.
`Cc1ncnn1CC1(c2cccc(N3Cc4c(cc(CN5CCN(C)C[C@@H]5C(C)C)cc4C(F)(F)F)C3=O)c2)COC1` [Compound 254, (S)-6-((2-isopropyl-4-methylpiperazin-1-yl)methyl)-2-(3-(3-((5-methyl-1H-1,2,4-triazol-1-yl)methyl)oxetan-3-yl)phenyl)-4-(trifluoromethyl)isoindolin-1-one] was tested, and the pIC50 [1] was 5.62, the pIC50 [2] was 5.49 and the “(fold-selectivity)” value [2] was “(1.4x)”.
With `Cn1cnnc1CC1(c2cccc(N3Cc4c(cc(CNC(C)(C)C)cc4C(F)(F)F)C3=O)c2)CC(F)(F)C1` [Compound 283, 6-((tert-butylamino)methyl)-2-(3-(3,3-difluoro-1-((4-methyl-4H-1,2,4-triazol-3-yl)methyl)cyclobutyl)phenyl)-4-(trifluoromethyl)isoindolin-1-one] the pIC50 [1] was 7.28, the pIC50 [2] was 7.24 and the “(fold-selectivity)” value [2] was “(1.1x)”.
In the case of `Cn1cnnc1CC1(c2cc(C3CC3)nc(N3Cc4c(cc(CNC5(C)CCC5)cc4C(F)(F)F)C3=O)c2)CCC1` [Compound 284, 2-(6-cyclopropyl-4-(1-((4-methyl-4H-1,2,4-triazol-3-yl)methyl)cyclobutyl)pyridin-2-yl)-6-(((1-methylcyclobutyl)amino)methyl)-4-(trifluoromethyl)isoindolin-1-one], the pIC50 [1] was 7.92, the pIC50 [2] was 8.13 and the “(fold-selectivity)” value [2] was “(0.59x)”.
With `CC(C)[C@H]1CNCCN1Cc1cc2c(c(C(F)(F)F)c1)CN(c1cccc(C3(Cc4nncn4C)CC(F)(F)C3)c1)C2=O` [Compound 219, (S)-2-(3-(3,3-difluoro-1-((4-methyl-4H-1,2,4-triazol-3-yl)methyl)cyclobutyl)phenyl)-6-((2-isopropylpiperazin-1-yl)methyl)-4-(trifluoromethyl)isoindolin-1-one] the pIC50 [1] was 7.12, the pIC50 [2] was 7.08 and the “(fold-selectivity)” value [2] was 1.1x.
`CCCNCc1cc2c(c(C(F)(F)F)c1)CN(c1cccc(C3([C@@H](F)c4nncn4C)COC3)c1)C2=O` [Compound 228, (R)-2-(3-(3-(fluoro(4-methyl-4H-1,2,4-triazol-3-yl)methyl)oxetan-3-yl)phenyl)-6-((propylamino)methyl)-4-(trifluoromethyl)isoindolin-1-one formate] was tested, and the pIC50 [1] was 7.92 and the pIC50 [2] was 7.02.
`CC[C@@H]1CC[C@H](c2cc3c(c(C(F)(F)F)c2)CN(c2cccc(C4(Cc5nncn5C)CC(F)(F)C4)c2)C3=O)N1` [Compound 476, 2-(3-(3,3-difluoro-1-((4-methyl-4H-1,2,4-triazol-3-yl)methyl)cyclobutyl)phenyl)-6-((2R,5R)-5-ethylpyrrolidin-2-yl)-4-(trifluoromethyl)isoindolin-1-one] was tested, and the pIC50 [1] was 7.33, the pIC50 [2] was 7.41 and the “(fold-selectivity)” value [2] was “(0.83x)”.
`CCc1cccc2c1CN(c1cccc(C3([C@@H](F)c4nncn4C)COC3)c1)C2=O` [Compound 209] was tested, and the pIC50 [1] was 5.96, the pIC50 [2] was 5.72 and the “(fold-selectivity)” value [2] was 1.7x.
For `Cn1cnnc1[C@@H](F)C1(c2cccc(N3Cc4c(cc(CN5CC(C(F)F)C5)cc4C(F)(F)F)C3=O)c2)COC1` [Compound 138, (S)-6-((3-(difluoromethyl)azetidin-1-yl)methyl)-2-(3-(3-(fluoro(4-methyl-4H-1,2,4-triazol-3-yl)methyl)oxetan-3-yl)phenyl)-4-(trifluoromethyl)isoindolin-1-one], the pIC50 [1] was 7.01, the pIC50 [2] was 6.74 and the “(fold-selectivity)” value [2] was 1.8x.
With `CCNc1cc(C2(Cc3nncn3C)COC2)cc(N2Cc3c(cc(CNC4(C)CCC4)cc3C(F)(F)F)C2=O)n1` [Compound 290, 2-(6-(ethylamino)-4-(3-((4-methyl-4H-1,2,4-triazol-3-yl)methyl)oxetan-3-yl)pyridin-2-yl)-6-(((1-methylcyclobutyl)amino)methyl)-4-(trifluoromethyl)isoindolin-1-one] the pIC50 [1] was 8.00, the pIC50 [2] was 8.27 and the “(fold-selectivity)” value [2] was “(0.54x)”.
In the case of `Cn1cnnc1CC1(c2cccc(N3Cc4c(cc(C5CNC5)cc4C(F)(F)F)C3=O)c2)COC1` [Compound 12, 6-(azetidin-3-yl)-2-(3-(3-((4-methyl-4H-1,2,4-triazol-3-yl)methyl)oxetan-3-yl)phenyl)-4-(trifluoromethyl)isoindolin-1-one], the pIC50 [1] was 6.66, the pIC50 [2] was 6.68 and the “(fold-selectivity)” value [2] was 0.94x.
With `Cn1cnnc1[C@H](F)C1(c2cccc(N3Cc4c(cc([C@@H](N)CC5CC5)cc4C(F)(F)F)C3=O)c2)COC1` [Compound 389, 6-((S)-1-amino-2-cyclopropylethyl)-2-(3-(3-((R)-fluoro(4-methyl-4H-1,2,4-triazol-3-yl)methyl)oxetan-3-yl)phenyl)-4-(trifluoromethyl)isoindolin-1-one] the pIC50 [1] was 8.02, the pIC50 [2] was 7.85 and the “(fold-selectivity)” value [2] was “(1.4x)”.
In the case of `Cn1cnnc1[C@@H](F)C1(c2cccc(N3Cc4c(cc(CN)cc4C(F)(F)F)C3=O)c2)COC1` [Compound 69, (S)-6-(aminomethyl)-2-(3-(3-(fluoro(4-methyl-4H-1,2,4-triazol-3-yl)methyl)oxetan-3-yl)phenyl)-4-(trifluoromethyl)isoindolin-1-one], the pIC50 [1] was 6.68, the pIC50 [2] was 6.47 and the “(fold-selectivity)” value [2] was 1.6x.
For `Cn1cnnc1[C@@H](F)C1(c2cccc(N3Cc4c(cc(CN5CCC(C)(O)CC5)cc4C(F)(F)F)C3=O)c2)COC1` [Compound 142, (S)-2-(3-(3-(fluoro(4-methyl-4H-1,2,4-triazol-3-yl)methyl)oxetan-3-yl)phenyl)-6-((4-hydroxy-4-methylpiperidin-1-yl)methyl)-4-(trifluoromethyl)isoindolin-1-one], the pIC50 [1] was 6.64, the pIC50 [2] was 6.37 and the “(fold-selectivity)” value [2] was 1.9x.
With `CCOc1cc(C2(Cc3nncn3C)CCC2)cc(N2Cc3c(cc(CNC4(C)CCC4)cc3C(F)(F)F)C2=O)n1` [Compound 285, 2-(6-ethoxy-4-(1-((4-methyl-4H-1,2,4-triazol-3-yl)methyl)cyclobutyl)pyridin-2-yl)-6-(((1-methylcyclobutyl)amino)methyl)-4-(trifluoromethyl)isoindolin-1-one] the pIC50 [1] was 8.10, the pIC50 [2] was 8.28 and the “(fold-selectivity)” value [2] was “(0.71x)”.
`CN1CCN(Cc2cc3c(c(C(F)(F)F)c2)CN(c2cccc(C4(Cc5nncn5C)CC(F)(F)C4)c2)C3=O)C(C(F)(F)F)C1` (stereo not drawn) [Compound 374, 2-(3-(3,3-difluoro-1-((4-methyl-4H-1,2,4-triazol-3-yl)methyl)cyclobutyl)phenyl)-6-((4-methyl-2-(trifluoromethyl)piperazin-1-yl)methyl)-4-(trifluoromethyl)isoindolin-1-one] was tested, and the pIC50 [1] was 7.00, the pIC50 [2] was 7.00 and the “(fold-selectivity)” value [2] was “(1.0x)”.
`CC(C)[C@H]1CN(C)CCN1Cc1cc2c(c(C(F)(F)F)c1)CN(c1cc(C3(Cc4nncn4C)CCC3)cc(C#N)n1)C2=O` [Compound 299, (S)-6-(6-((2-isopropyl-4-methylpiperazin-1-yl)methyl)-1-oxo-4-(trifluoromethyl)isoindolin-2-yl)-4-(1-((4-methyl-4H-1,2,4-triazol-3-yl)methyl)cyclobutyl)picolinonitrile] was tested, and the pIC50 [1] was 7.96, the pIC50 [2] was 8.27 and the “(fold-selectivity)” value [2] was “(0.50x)”.
For `Cn1cnnc1CC1(c2cccc(N3Cc4c(cc(CNC5CCCC5)cc4C(F)(F)F)C3=O)c2)CC(F)(F)C1` [Compound 364, 6-((cyclopentylamino)methyl)-2-(3-(3,3-difluoro-1-((4-methyl-4H-1,2,4-triazol-3-yl)methyl)cyclobutyl)phenyl)-4-(trifluoromethyl)isoindolin-1-one], the pIC50 [1] was 7.82, the pIC50 [2] was 8.01 and the “(fold-selectivity)” value [2] was “(0.63x)”.

Source: US20250230147A1, “LACTAMS AS CBL-B INHIBITORS” (Genentech, Inc., priority 2021, published 2025)
